Read-outs that look alike come from different tables or passages of the source.
What was measured:
[1] = tested on: SGC-7901 human gastric adenocarcinoma cancer cell line; assay: MTT in vitro antitumor (antiproliferative) assay, SGC-7901; type: cell-based; conditions: for IC50: Homo sapiens, read-out: IC50 SGC-7901; for fold greater antiproliferative activity (lower IC50) than irinotecan, SGC-7901 cells: IC50 ratio vs irinotecan
Method: (§1) The in vitro antitumor activities were evaluated on human cancer cell lines SGC-7901 and HeLa by the MTT assay, using irinotecan as the reference compound.
(§2) The in vitro antitumor activity was evaluated on two human cancer cell lines with the MTT method. SGC-7901 is a human gastric adenocarcinoma cancer cell line and HeLa is a human cervical carcinoma cell line. Cells were provided by the Jilin Province Tumor Institute. Cells were maintained in IMDM medium supplemented with 10% fetal calf serum, 2 mM glutamine, 100 U/mL penicillin, and 100 μg/mL streptomycin, at 37 °C in a humidified atmosphere containing 5% CO2. The human cancer lines SGC-7901 and HELA at a concentration of […] were incubated in a 96-well microtiter plate (100 μL in every well) for 24 h (37 °C, 5%CO2). Then the cells were incubated continuously for 72 h following various concentrations of test drugs were added. The concentrations are 50 μM, 10 μM, 2 μM, 0.4 μM, 0.08 μM, 0.016 μM, 0.0032 μM, respectively. After the 100 μL 0.05% MTT solution was added to each well, the plate was incubated for a further 4 h before removal of medium, the media removed. Formazan crystals were dissolved with 100 μL DMSO, then the absorbance was detected at 490 nm.

[2] = tested on: HeLa human cervical carcinoma cell line; assay: MTT in vitro antitumor (antiproliferative) assay, HeLa; type: cell-based
Method: as §1, §2

[3] = molecular target: AChE from electric eel (Electrophorus electricus, UniProt O42275); assay: AChE inhibition assay (modified Ellman method); type: biochemical; conditions: phosphate buffer pH 7.3, 37 °C
Sequence of AChE from electric eel (O42275 24-633): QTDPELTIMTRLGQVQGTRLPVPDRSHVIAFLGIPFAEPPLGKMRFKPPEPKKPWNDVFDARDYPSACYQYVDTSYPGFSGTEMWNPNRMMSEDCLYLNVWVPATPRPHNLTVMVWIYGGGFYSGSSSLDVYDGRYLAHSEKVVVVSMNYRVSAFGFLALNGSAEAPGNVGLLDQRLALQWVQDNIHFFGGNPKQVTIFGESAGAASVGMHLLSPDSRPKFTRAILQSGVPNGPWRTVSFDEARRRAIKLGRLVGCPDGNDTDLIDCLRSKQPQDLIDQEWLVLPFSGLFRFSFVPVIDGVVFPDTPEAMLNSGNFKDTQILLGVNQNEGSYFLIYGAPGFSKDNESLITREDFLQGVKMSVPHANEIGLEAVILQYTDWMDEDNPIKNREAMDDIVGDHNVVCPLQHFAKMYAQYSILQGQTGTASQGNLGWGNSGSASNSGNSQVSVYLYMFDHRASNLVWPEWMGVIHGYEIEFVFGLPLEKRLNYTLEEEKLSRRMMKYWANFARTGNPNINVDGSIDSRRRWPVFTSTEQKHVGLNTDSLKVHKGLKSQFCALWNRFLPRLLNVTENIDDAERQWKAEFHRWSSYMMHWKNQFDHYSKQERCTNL
Description: Irinotecan has been reported to be a potent inhibiter of AChE, and inhibition of this enzyme causes acute cholinergic diarrhea. Unlike irinotecan, the compounds we assayed were only weak inhibitors of AChE. […] One possible explanation is that the active site of AChE is present at the bottom of a gorge that is lined with hydrophobic amino acid residues. The terminal dipiperidino moiety in CPT-11 that interacts with amino acid residues within AChE plays a major role in enzyme inhibition, which has been confirmed by X-ray crystallographic studies.
The AChE inhibition by all compounds was studied according to a modification of the method of Ellman et al.. The activity was assayed with AChE from electric eel in the presence or absence of the test compounds in phosphate buffer (pH7.3). After the incubation at 37 °C for 1 min, 0.38 mM 5,5-dithiobisnitrobenzoic acid and 0.56 mM ATCh were added to the buffer. The changes in absorbance were read at 412 nm, per 15 s intervals for 3 min by a spectrophotometer (UV-2500, Shimadzu Corp., Kyoto, Japan).

[4] = Chemical stability of the prodrugs in PBS (HPLC); type: physicochemical; conditions: for Remaining Prodrugs 1 h pH 4.6 / Remaining Prodrugs 12 h pH 4.6: PBS pH 4.6, 37 °C; for Remaining Prodrugs 1 h pH 7.4 / Remaining Prodrugs 12 h pH 7.4: PBS pH 7.4, 37 °C
Method: They were stable at pH 4.6 at 37 °C for 12 h. Except for compound 5h, less than 35% of the prodrugs remained after incubation for 12 h in pH 7.4 buffer. […] For example, less than 30% of the prodrugs 7a–f remained, while more than 85% of the prodrugs 5a–h remained after incubation for 1 h in pH 7.4 buffer.
The stability of all compounds was investigated in PBS and human plasma by HPLC using a C18 analytical column. The mobile phase was composed of water and acetonitrile at a ratio of 70:30, respectively, containing 1% trifluoroacetic acid. The amount of the compound and its metabolite SN-38 were flowed at the rate of 0.8 mL·min^−1 and detected by the UV wavelength of 370 nm. Stability test in PBS: each compound was dissolved in PBS (pH 7.4 and pH 4.6), incubated at 37 °C and analyzed at 1, 3, 6, 12 h. Stability test in plasma: The test compounds were dissolved in DMSO and diluted to 1 mM by 0.9% physiological saline. Forty μL of each solution was added into plasma with a final concentration of 0.1 mM. The mixture was incubated in a 37 °C water bath following the vigorous vortex mixing for 15 s. Samples were analyzed at 1, 3, 6, 12 h. 400 μL of cold acetonitrile (containing 1% trifluoroacetic acid) was added to each sample, vortex-mixed for 15 s and centrifuged at 3500 rpm for 15 min at 4 °C.

[5] = tested on: human colon adenocarcinoma SW1116 xenografts; assay: Tumor growth inhibition in human colon adenocarcinoma SW1116 xenografts in nude mice; type: in vivo; conditions: 60 mg/kg; for Tumor Weight / Inhibitory Rate: injection in the tumor section once per day for 6 days; for Tumor Weight: SW1116 xenograft nude mice, x ± SD; for Inhibitory Rate: day 6, vs vehicle; for Body Weight Change: once per day for 6 days, nude mice
Method: The antitumor activity of 5e, compared with CPT-11 and SN-38, was investigated in human colon adenocarcinoma SW1116 xenografts in nude mice. The model animals were divided into four experimental groups, eight animals per group. Tested compouds were each administered by injection in the tumor section once per day for contiguous 6 days. The injection doses of test compound 5e, CPT-11, and SN-38 were 60 mg/kg, respectively. Using the vehicle group as the control, we tested the inhibitory activities of these compounds for 6 days and measured the changes in body weight and tumor size every 2 days. […] No toxic death occurred after drug treatment, and the body weight losses induced by 5e, CPT-11, and SN-38 at the given dose were similar.

[6] = set-up: method as in PMID 11716702, PMID 15217940, PMID 19495753; conditions: cited from earlier work

Row | SMILES | IC50 ([1]; SGC-7901, 72 h) | IC50 ([2]; 72 h, read-out: IC50 HeLa) | IC50 ([3]; AChE IC50, electric eel AChE) | Remaining Prodrugs 1 h pH 4.6 [4] | Remaining Prodrugs 12 h pH 4.6 [4] | Remaining Prodrugs 1 h pH 7.4 [4] | Remaining Prodrugs 12 h pH 7.4 [4] | fold greater antiproliferative activity (lower IC50) than irinotecan, SGC-7901 cells [1] | IC50 ([2]; 72 h, read-out: IC50 against HeLa cells) | IC50 ([1]; SGC-7901, MTT, 72 h incubation) | IC50 ([2]; MTT, 72 h incubation, read-out: IC50 HeLa) | IC50 ([3]; electric eel AChE, read-out: AChE IC50) | Tumor Weight [5] | Inhibitory Rate [5] | Body Weight Change [5] | Body Weight Change ([5]; listed as CPT-11) | bioconversion efficiency from irinotecan to the active form SN-38 [6]
1 | CCc1c2c(nc3ccc(OC(=O)NCC(=O)N[C@H](CC(=O)O)C(=O)O)cc13)-c1cc3c(c(=O)n1C2)COC(=O)[C@]3(O)CC [Compound 7a, 10-OCO-(D-Asp-Gly-OH)-SN-38] | 1040 ± 900 nM | < 3.2 nM | 116000 nM | 100% | 96.8% | 26.0% | 0% | – | – | – | – | – | – | – | – | – | –
2 | CCc1c2c(nc3ccc(OC(=O)NCC(=O)N[C@@H](CC(=O)O)C(=O)O)cc13)-c1cc3c(c(=O)n1C2)COC(=O)[C@]3(O)CC [Compound 7b, 10-OCO-(L-Asp-Gly-OH)-SN-38] | 610 ± 680 nM | 14.8 nM | – | 100% | 96.9% | 17.6% | 0% | – | – | – | – | – | – | – | – | – | –
3 | CCc1c2c(nc3ccc(OC(=O)NCC(=O)NC(CCC(=O)O)C(=O)O)cc13)-c1cc3c(c(=O)n1C2)COC(=O)[C@]3(O)CC (stereo partly drawn) [Compound 7c, 10-OCO-(Glu-Gly-OH)-SN-38] | 200 ± 70 nM | < 3.2 nM | > 100000 nM | 100% | 96.4% | 29.4% | 0% | 30 fold | – | – | – | – | – | – | – | – | –
4 | CCc1c2c(nc3ccc(OC(=O)NC(C)C(=O)N[C@H](CC(=O)O)C(=O)O)cc13)-c1cc3c(c(=O)n1C2)COC(=O)[C@]3(O)CC (stereo partly drawn) [Compound 7d, 10-OCO-(D-Asp-Ala-OH)-SN-38] | 260 ± 640 nM | < 3.2 nM | 4440 nM | 100% | 95.5% | 26.3% | 0% | 30 fold | – | – | – | – | – | – | – | – | –
5 | CCc1c2c(nc3ccc(OC(=O)NC(C)C(=O)N[C@@H](CC(=O)O)C(=O)O)cc13)-c1cc3c(c(=O)n1C2)COC(=O)[C@]3(O)CC (stereo partly drawn) [Compound 7e, 10-OCO-(L-Asp-Ala-OH)-SN-38] | 210 ± 550 nM | 12.9 nM | – | 100% | 94.5% | 23.4% | 0% | – | – | – | – | – | – | – | – | – | –
6 | CCc1c2c(nc3ccc(OC(=O)NC(C)C(=O)NC(CCC(=O)O)C(=O)O)cc13)-c1cc3c(c(=O)n1C2)COC(=O)[C@]3(O)CC (stereo partly drawn) [Compound 7f, 10-OCO-(Glu-Ala-OH)-SN-38] | 270 ± 180 nM | 1.57 nM | 36100 nM | 100% | 94.7% | 14.4% | 0% | 30 fold | < 3.2 nM | – | – | – | – | – | – | – | –
7 | CCc1c2c(nc3ccc(OC(=O)N4CCC(N5CCCCC5)CC4)cc13)-c1cc3c(c(=O)n1C2)COC(=O)[C@]3(O)CC [Irinotecan, 7-ethyl-10-[4-(1-piperidino)-1-piperidino]-carbonyloxycamptothecin] | – | – | – | – | – | – | – | – | – | 7380 ± 1240 nM | 1320 ± 130 nM | 200 nM | 0.17 ± 0.04 g/10g | 51% | -3.10 g | similar | 4%–5%
8 | CCc1c2c(nc3ccc(O)cc13)-c1cc3c(c(=O)n1C2)COC(=O)[C@]3(O)CC [SN-38, 7-ethyl-10-hydroxycamptothecin] | – | – | – | – | – | – | – | – | – | – | – | – | 0.32 ± 0.12 g/10g | 8.6% | – | – | –

Source: article PMC6270839, “Synthesis and Biological Evaluation of Novel 10-Substituted-7-ethyl-10-hydroxycamptothecin (SN-38) Prodrugs” (Molecules, 2014)
